Source: patent US20250340574A1, “MODULATORS OF CYSTIC FIBROSIS TRANSMEMBRANE CONDUCTANCE REGULATOR” (Vertex Pharmaceuticals Incorporated, priority 2022, published 2025)
pEC50: −log10 of the molar value.

How the values were obtained:
Format in all cases: cell-based
[1] = target: T1, CFTR (F508del/MF-HBE cells) (Homo sapiens, UniProt P13569, DEL508-508); assay: Ussing chamber assay of CFTR-mediated short-circuit currents, Assay D (single concentration of 1 μM); settings: with 44 nM potentiator and 18 μM Tezacaftor, 18-24 hours, 20% human serum
T1 construct: human bronchial epithelial (HBE) cells derived from CF subjects heterozygous for F508del and a minimal function CFTR mutation (F508del/MF-HBE); endogenous in cells; host or cells: Primary human bronchial epithelial cells from CF subjects (F508del/MF genotype), differentiated at an air-liquid interface
T1 sequence (P13569 with tags, fused parts or gaps DEL508-508): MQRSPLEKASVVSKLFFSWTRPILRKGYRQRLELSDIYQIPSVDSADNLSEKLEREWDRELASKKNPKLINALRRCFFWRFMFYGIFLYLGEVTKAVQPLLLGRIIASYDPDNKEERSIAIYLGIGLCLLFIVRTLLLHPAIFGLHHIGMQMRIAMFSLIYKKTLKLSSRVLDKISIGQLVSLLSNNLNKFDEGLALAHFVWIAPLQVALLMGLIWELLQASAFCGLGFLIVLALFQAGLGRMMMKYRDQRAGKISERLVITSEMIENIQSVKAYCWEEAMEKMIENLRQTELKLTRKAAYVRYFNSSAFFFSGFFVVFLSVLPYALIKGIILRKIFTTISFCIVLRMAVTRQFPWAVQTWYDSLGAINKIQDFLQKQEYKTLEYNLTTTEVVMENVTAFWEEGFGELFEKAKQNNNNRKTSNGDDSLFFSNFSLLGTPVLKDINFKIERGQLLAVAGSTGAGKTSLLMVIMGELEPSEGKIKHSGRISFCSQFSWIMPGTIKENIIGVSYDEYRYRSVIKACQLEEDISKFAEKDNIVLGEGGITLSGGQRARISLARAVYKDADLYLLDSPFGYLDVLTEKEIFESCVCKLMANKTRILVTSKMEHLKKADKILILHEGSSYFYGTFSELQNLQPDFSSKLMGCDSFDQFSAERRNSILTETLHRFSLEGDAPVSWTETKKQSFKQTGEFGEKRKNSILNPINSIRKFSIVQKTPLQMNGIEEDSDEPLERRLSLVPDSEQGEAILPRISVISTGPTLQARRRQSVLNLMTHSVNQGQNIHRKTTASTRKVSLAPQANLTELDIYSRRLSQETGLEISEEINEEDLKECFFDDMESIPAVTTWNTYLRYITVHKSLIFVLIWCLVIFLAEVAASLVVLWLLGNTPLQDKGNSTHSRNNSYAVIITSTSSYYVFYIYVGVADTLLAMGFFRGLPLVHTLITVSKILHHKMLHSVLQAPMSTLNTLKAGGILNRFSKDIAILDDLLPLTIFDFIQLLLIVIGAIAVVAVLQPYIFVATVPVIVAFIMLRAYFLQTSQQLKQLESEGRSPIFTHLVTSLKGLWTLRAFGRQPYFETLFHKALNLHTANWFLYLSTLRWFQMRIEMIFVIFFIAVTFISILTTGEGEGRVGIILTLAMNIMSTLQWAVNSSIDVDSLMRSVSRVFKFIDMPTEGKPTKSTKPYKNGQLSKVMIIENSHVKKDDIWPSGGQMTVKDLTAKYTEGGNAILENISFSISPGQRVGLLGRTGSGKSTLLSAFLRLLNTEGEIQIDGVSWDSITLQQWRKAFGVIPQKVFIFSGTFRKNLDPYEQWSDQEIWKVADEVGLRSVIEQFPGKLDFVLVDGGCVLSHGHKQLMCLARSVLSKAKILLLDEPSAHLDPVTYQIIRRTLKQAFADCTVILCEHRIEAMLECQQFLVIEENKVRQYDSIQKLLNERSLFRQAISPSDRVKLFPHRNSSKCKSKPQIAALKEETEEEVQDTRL
Procedure, shortened: (§1)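 F508del/MF-HBE cells were preincubated 18–24 h at 37 °C in 20% human serum with corrector plus 18 μM tezacaftor and either 33 nM (concentration series) or 44 nM (1 μM single point) of the aminotrifluoromethyl triazatricyclic potentiator. Ussing chamber, Vhold=0 mV, 37 °C; forskolin 20 μM stimulation, CFTR ISC taken as inhibitor-cocktail-sensitive current.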

[2] = target: T1, CFTR (F508del/MF-HBE cells); assay: Ussing chamber assay of CFTR-mediated short-circuit currents, Assay C (0.026 μM to 25 μM, 6 concentrations); settings: with 33 nM potentiator and 18 μM Tezacaftor, 20% human serum; for Emax: read-out: C Max activity (%)
Procedure, shortened: as §1

[3] = target: T1, CFTR (F508del/MF-HBE cells); assay: Ussing chamber assay of CFTR-mediated short-circuit currents, Assay B (0.00001 μM to 25 μM, 12 concentrations); settings: with 33 nM potentiator and 18 μM Tezacaftor, 20% human serum; for Emax: read-out: B Max activity (%)
Experimental: (§2) Ussing chamber experiments were performed using human bronchial epithelial (HBE) cells derived from CF subjects heterozygous for F508del and a minimal function CFTR mutation (F508del/MF-HBE) and cultured as previously described (Neuberger T, Burton B, Clark H, Van Goor F Methods Mol Biol 2011:741:39-54). After four days the apical media was removed, and the cells were grown at an air liquid interface for >14 days prior to use.
(§3) To isolate the CFTR-mediated short-circuit (ISC) current, F508del/MF-HBE grown on Costar® Snapwell™ cell culture inserts were mounted in an Ussing chamber and the transepithelial ISC was measured under voltage-clamp recording conditions (Vhold=0 mV) at 37° C. The basolateral solution contained (in mM) 145 NaCl, 0.83 K2HPO4, 3.3 KH2PO4, 1.2 MgCl2, 1.2 CaCl2, 10 Glucose, 10 HEPES (pH adjusted to 7.4 with NaOH) and the apical solution contained (in mM) 145 NaGluconate, 1.2 MgCl2, 1.2 CaCl2, 10 glucose, 10 HEPES (pH adjusted to 7.4 with NaOH) and 30 μM amiloride to block the epithelial sodium channel. Forskolin (20 μM) was added to the apical surface to activate CFTR, followed by apical addition of a CFTR inhibitor cocktail consisting of BPO, GlyH-101, and CFTR inhibitor 172 (each at 20 μM final assay concentration) to specifically isolate CFTR currents. The CFTR-mediated ISC (μA/cm^2) for each condition was determined from the peak forskolin response to the steady-state current following inhibition.
(§4) The activity of the CFTR corrector compounds on the CFTR-mediated ISC was determined in Ussing chamber studies as described above. The F508del/MF-HBE cell cultures were either incubated with the corrector compounds at a range of concentrations in combination with 33 nM (6R,12R)-17-amino-12-methyl-6,15-bis(trifluoromethyl)-13,19-dioxa-3,4,18-triazatricyclo[12.3.1.12,5]nonadeca-1(18),2,4,14,16-pentaen-6-ol and 18 μM Tezacaftor or were incubated with the corrector compounds at a single fixed concentration of 1 μM in combination with 44 nM (6R,12R)-17-amino-12-methyl-6,15-bis(trifluoromethyl)-13,19-dioxa-3,4,18-triazatricyclo[12.3.1.12,5]nonadeca-1(18),2,4,14,16-pentaen-6-ol and 18 μM Tezacaftor for 18-24 hours at 37° C. and in the presence of 20% human serum. The concentration of corrector compounds with 44 nM or 33 nM (6R,12R)-17-amino-12-methyl-6,15-bis(trifluoromethyl)-13,19-dioxa-3,4,18-triazatricyclo[12.3.1.12,5]nonadeca-1(18),2,4,14,16-pentaen-6-ol and 18 μM Tezacaftor during the 18-24 hours incubations was kept constant throughout the Ussing chamber measurement of the CFTR-mediated ISC to ensure compounds were present throughout the entire experiment. The efficacy and potency of the putative F508del correctors was compared to that of the known Vertex corrector, (14S)-8-[3-(2-{Dispiro[2.0.2.1]heptan-7-yl}ethoxy)-1H-pyrazol-1-yl]-12,12-dimethyl-2λ^6-thia-3,9,11,18,23-pentaazatetracyclo[17.3.1.111,14.05,10]tetracosa-1(22),5,7,9,19(23),20-hexaene-2,2,4-trione, in combination with 18 μM Tezacaftor and 1 μM Ivacaftor.
(§5) • Assay A: 0.1 μM to 25 μM, 6 concentrations • Assay B: 0.00001 μM to 25 μM, 12 concentrations • Assay C: 0.026 μM to 25 μM, 6 concentrations • Assay D: Activity at single concentration of 1 μM

[4] = target: T1, CFTR (F508del/MF-HBE cells); assay: Ussing chamber assay of CFTR-mediated short-circuit currents, Assay A (0.1 μM to 25 μM, 6 concentrations); settings: with 33 nM potentiator and 18 μM Tezacaftor, 20% human serum; for Emax: 18-24 hours, read-out: A Max activity (%)
Experimental: as §2, §3, §4, §5

Row | Emax ([3]; 18-24 hours) [%] | pEC50 [3] | Emax [4] [%] | pEC50 [4] | SMILES | further results
1 | > 60 | > 6.00 | – | – | Cc1cccc(C)c1-c1nc2nc(c1C)OC[C@@H](COC(C)C)N(Cc1cnc3cc(C(C)(C)C)n(C)c3n1)C(=O)c1cccc(c1)S(=O)(=O)N2 [Compound I-182] | D activity at 1 μM (%) [1]: +++ (+++ is >60%); Emax ([2]; 18-24 hours): > 60%; pEC50 [2]: > 6.00
2 | > 60 | > 6.00 | > 60 | > 6.00 | Cc1cccc(CC(C)C)c1-c1nc2nc(c1C)OC[C@@H](CC(C)(C)C)N(Cc1cnc3cc(C(C)C)n(C)c3n1)C(=O)c1cccc(c1)S(=O)(=O)N2 (atropisomer, axis not shown) [Compound I-82] | –
3 | > 60 | 5.52 to 6.00 | > 60 | > 6.00 | Cc1cccc(C)c1-c1cc2nc(n1)NS(=O)(=O)c1cccc(c1)C(=O)N(Cc1cnc3oc(C4(C)CC4)cc3n1)[C@H](CC13CC(C1)C3)CO2 [Compound I-97] | –
4 | > 60 | 5.52 to 6.00 | > 60 | > 6.00 | Cc1cccc(C)c1-c1cc2nc(n1)NS(=O)(=O)c1cccc(c1)C(=O)N(Cc1nc3cc(C(C)C)oc3cc1F)[C@H](CC13CC(C1)C3)CO2 [Compound I-89] | –
5 | > 60 | 4.52 to 5.52 | > 60 | > 6.00 | Cc1cccc(C)c1-c1cc2nc(n1)NS(=O)(=O)c1cccc(c1)C(=O)N(Cc1cnc3oc(C4CC4)cc3n1)C(CCC1(C)CC1)CO2 (single isomer, unassigned) [Compound I-71, 12-[(6-cyclopropylfuro[2,3-b]pyrazin-2-yl)methyl]-6-(2,6-dimethylphenyl)-11-[2-(1-methylcyclopropyl)ethyl]-2,2-dioxo-9-oxa-2λ^6-thia-3,5,12,19-tetrazatricyclo[12.3.1.14,8]nonadeca-1(18),4(19),5,7,14,16-hexaen-13-one] | –
6 | > 60 | 4.52 to 5.52 | – | – | Cc1cccc(C)c1-c1cc2nc(n1)NS(=O)(=O)c1cccc(c1)C(=O)N(Cc1cnc3nc(C4CC4)n(C)c3n1)[C@H](COC(C)C)CO2 [Compound I-139] | –
7 | – | > 6.00 | – | – | Cc1cccc(CC(C)C)c1-c1nc2nc(c1C)OC[C@@H](CC13CC(C1)C3)N(Cc1cnc3cc(C(C)(C)C)n(C)c3n1)C(=O)c1cccc(c1)S(=O)(=O)N2 [IV-1] | Emax [3]: > 60%
8 | > 60 | 4.52 to 5.52 | – | – | Cc1cccc(C)c1-c1cc2nc(n1)NS(=O)(=O)c1cccc(c1)C(=O)N(Cc1cnc3cc(C4CC4)n(C)c3n1)[C@H](COC(C)C)CO2 [Compound I-151] | –
9 | > 60 | 5.52 to 6.00 | > 60 | > 6.00 | Cc1cccc(C)c1-c1cc2nc(n1)NS(=O)(=O)c1cccc(c1)C(=O)N(Cc1cnc3oc(C4CC4)cc3n1)[C@H](CC1CC1)CO2 [Compound I-103] | –
10 | > 60 | 4.52 to 5.52 | – | – | Cc1cccc(C)c1-c1cc2nc(n1)NS(=O)(=O)c1cccc(c1)C(=O)N(Cc1cnc3oc(C4CC4)cc3n1)[C@H](CCC(C)C)CO2 [Compound I-130] | –
11 | > 60 | 4.52 to 5.52 | > 60 | > 6.00 | Cc1cccc(C)c1-c1cc2nc(n1)NS(=O)(=O)c1cccc(c1)C(=O)N(Cc1cnc3oc(C(C)C)cc3n1)[C@@H](CCC1(C)CC1)CO2 (stereo in doubt) [Compound I-70] | –

More lines, now with the values behind:

Row | SMILES | Emax ([3]; 18-24 hours) [%] | pEC50 [3] | Emax [4] [%] | pEC50 [4] | further results
12 | Cc1cccc(C)c1-c1cc2nc(n1)NS(=O)(=O)c1cccc(c1)C(=O)N(Cc1cnc3oc(C(C)C)cc3n1)[C@H](CC1CC1)CO2 [Compound I-57] | > 60 | 4.52 to 5.52 | > 60 | > 6.00 | –
13 | COCCc1c(C(C)(C)C)n(C)c2nc(CN3C(=O)c4cccc(c4)S(=O)(=O)Nc4nc(c(OC)c(-c5c(C)cccc5CC(C)C)n4)OC[C@H]3CC(C)(C)C)cnc12 (atropisomer, axis not shown) [IV-94] | – | > 6.00 | – | – | pEC50 [2]: > 6.00; Emax [2]: > 60%; Emax [3]: > 60%
14 | Cc1cccc(C)c1-c1cc2nc(n1)NS(=O)(=O)c1cccc(c1)C(=O)N(Cc1cnc3oc(C4CC4)cc3n1)[C@H](CCC(C)(C)C)CO2 [Compound I-24] | > 60 | 5.52 to 6.00 | > 60 | > 6.00 | –
15 | Cc1cccc(C)c1-c1cc2nc(n1)NS(=O)(=O)c1cccc(c1)C(=O)N(Cc1cnc3oc(C(C)C)cc3n1)[C@H](CC1CCC1)CO2 [Compound I-56] | > 60 | 5.52 to 6.00 | > 60 | > 6.00 | –
16 | Cc1cccc(CC(C)C)c1-c1nc2nc(c1C)OC[C@@H](CC(C)(C)C)N(Cc1cnc3cc(C(C)(C)C)n(C)c3n1)C(=O)c1cccc(c1)S(=O)(=O)N2 [Compound I-206, (5P,11R)-12-({6-tert-butyl-5-methyl-5H-pyrrolo[2,3-b]pyrazin-3-yl}methyl)-11-(2,2-dimethylpropyl)-7-methyl-6-[2-methyl-6-(2-methylpropyl)phenyl]-9-oxa-2λ^6-thia-3,5,12,19-tetraazatricyclo[12.3.1.1∧{4,8}]nonadeca-1(17),4(19),5,7,14(18),15-hexaene-2,2,13-trione] | – | > 6.00 | – | – | C Max activity (%) ([2]; 18-24 hours): +++ (+++ is >60%); pEC50 [2]: > 6.00; B Max activity (%) ([3]; 18-24 hours): +++ (+++ is >60%)
17 | Cc1cccc(CC(C)C)c1-c1nc2nc(c1C)OC[C@@H](CC(C)(C)C)N(Cc1cnc3oc(C(C)C)cc3n1)C(=O)c1cccc(c1)S(=O)(=O)N2 (atropisomer, axis not shown) [Compound I-65] | > 60 | 5.52 to 6.00 | > 60 | > 6.00 | –
18 | Cc1cccc(C)c1-c1cc2nc(n1)NS(=O)(=O)c1cccc(c1)C(=O)N(Cc1cnc3oc(C4CC4)cc3n1)[C@H](CC1CCC1)CO2 [Compound I-104, (11R)-11-(cyclobutylmethyl)-12-[(6-cyclopropylfuro[2,3-b]pyrazin-2-yl)methyl]-6-(2,6-dimethylphenyl)-2,2-dioxo-9-oxa-2λ^6-thia-3,5,12,19-tetrazatricyclo[12.3.1.14,8]nonadeca-1(18),4(19),5,7,14,16-hexaen-13-one] | > 60 | 4.52 to 5.52 | > 60 | > 6.00 | –
19 | Cc1cccc(C)c1-c1cc2nc(n1)NS(=O)(=O)c1cccc(c1)C(=O)N(Cc1cnc3oc(C4CC4)cc3n1)[C@H](COC1CCCC1)CO2 [Compound I-118] | > 60 | 4.52 to 5.52 | – | – | –
